Reference: patent US20240300923A1, “IRAK4 Inhibitors” (ASTRAZENECA AB, priority 2022, published 2024)

Tests used:
IRAK4 [1] = molecular target: T1, IRAK4 (Homo sapiens (Human), UniProt Q9NWZ3); assay: IRAK4 enzyme assay (mass spectrometry readout); type: biochemical; details: human recombinant IRAK4 0.2 nM, 3 mM ATP; geometric mean of at least 2 experiments
Experimental: Potency of IRAK4 Inhibitor Compounds in IRAK4 Enzyme Assay
The inhibitory activity of compounds against IRAK4 were determined in an enzymatic assay using mass spectrometry readout. Ten point half-log compound concentration response curves, with a top concentration of 1 μM or 10 μM, were generated from 10 mM stocks of compound solubilized in DMSO using an Echo 655 (Labcyte Inc) and added to 384 well assay plates (Greiner #781280). To the assay plates, 10 μL of human recombinant IRAK4 protein (Life Technologies #PV4002) diluted to a final concentration of 0.2 nM in assay buffer (50 mM Tris-HCl pH 7.4, 10 mM MgCl, 5 mM glutathione, 0.01% BSA, 3 mM ATP) was added. The enzyme was incubated with the compounds at room temperature for 15 minutes before a peptide substrate ([…], Innovagen custom synthesis, 10 mM in DMSO) was added to each well to a final concentration of 10 μM using an Echo 655 (Labcyte Inc). After two hours at room temperature, the reaction was stopped with 65 μL of 0.4% formic acid (Merck #33015). The unphosphorylated and phosphorylated peptide were measured by LC-MS/MS on a Waters TQ-S mass spectrometer. Peaks were integrated using the TargetLynx software and the ratios between phosphorylated and unphosphorylated peptides were calculated. Curves were fitted and compound potencies determined in Genedata Screener 19 (Genedata AG). IC50 values are the geometric mean of at least 2 experiments.

IRAK4 [2] = molecular target: T1, IRAK4; assay: IRAK4 phosphorylation cell assay (IL-1β-stimulated Karpas-299 cells); type: cell-based; details: IRAK4 auto-phosphorylation (pIRAK4 Thr345/Ser346) in IL-1β-stimulated Karpas-299 cells; geometric mean of at least 2 experiments
Experimental: IRAK4 Phosphorylation Cell Assay
The activation of IRAK4 by TLR or IL-1R ligands leads to IRAK4 auto-phosphorylation, which can be prevented by IRAK4 kinase inhibitors. The effect of IRAK4 inhibitor compounds on IRAK4 auto-phosphorylation was assessed in IL-1β-stimulated Karpas-299 cells as a measurement of cellular potency. Karpas-299 cells were cultured in RPMI 1640 (Gibco 61870-010) containing 10% FBS (Gibco #10270). Cells were plated at 2×10^4 cells per well in poly-D-lysine coated 384 well plates (Corning #356663) to which compounds had been added at various concentrations (10 point half log dose response with a final top concentration of 30 μM) using an Echo 655 (Labcyte Inc). Cells were centrifuged (250 g, 4 mins), incubated at 37° C. for 1 h, then stimulated with 22.7 ng/mL recombinant IL-1β (R&D Systems, #201-LB-025) at 37° C. for 10 mins, followed by fixation in 4% paraformaldehyde for 20 mins and permeabilization in ice-cold 70% MeOH in PBS for 30 mins. Cells were washed twice with phosphate-buffered saline (PBS) on a BlueWasher (BlueCatBio) then blocked with PBS containing 10% FBS for 20 mins. Blocking solution was removed with a BlueWasher and cells were stained with anti-pIRAK4 (Thr345/Ser346) (CST, #11927, 1:400) in blocking buffer with 0.05% Tween-20 for 1 h, then washed twice with PBS containing 0.05% Tween-20 on a BlueWasher, followed by staining with a Alexa 647-conjugated secondary anti-rabbit IgG antibody (CST, #4414, 1:2,000) and Hoechst 33342 (Sigma, 1:2,000) in blocking buffer with 0.05% Tween-20 for 30 mins. Finally, the cells were washed twice with PBS containing 0.05% Tween-20 and imaged on an ImageXpress Micro (Molecular Devices) with a 10× air objective using the appropriate filters. Images were analysed in Columbus (PerkinElmer) and the fluorescence intensity per cell from the secondary antibody was quantified. The quantified data were analysed in Genedata Screener 19 (Genedata AG). […] IC50 values are the geometric mean of at least 2 experiments.

human cKit kinase = human cKit kinase (Homo sapiens (Human), UniProt P10721); assay: cKit enzyme assay (LANCE, Eurofins CEREP); type: biochemical; details: human recombinant enzyme, 50 μM ATP; geometric mean of at least n=2, * = single experiment
Sequence of human cKit kinase (P10721 26-976): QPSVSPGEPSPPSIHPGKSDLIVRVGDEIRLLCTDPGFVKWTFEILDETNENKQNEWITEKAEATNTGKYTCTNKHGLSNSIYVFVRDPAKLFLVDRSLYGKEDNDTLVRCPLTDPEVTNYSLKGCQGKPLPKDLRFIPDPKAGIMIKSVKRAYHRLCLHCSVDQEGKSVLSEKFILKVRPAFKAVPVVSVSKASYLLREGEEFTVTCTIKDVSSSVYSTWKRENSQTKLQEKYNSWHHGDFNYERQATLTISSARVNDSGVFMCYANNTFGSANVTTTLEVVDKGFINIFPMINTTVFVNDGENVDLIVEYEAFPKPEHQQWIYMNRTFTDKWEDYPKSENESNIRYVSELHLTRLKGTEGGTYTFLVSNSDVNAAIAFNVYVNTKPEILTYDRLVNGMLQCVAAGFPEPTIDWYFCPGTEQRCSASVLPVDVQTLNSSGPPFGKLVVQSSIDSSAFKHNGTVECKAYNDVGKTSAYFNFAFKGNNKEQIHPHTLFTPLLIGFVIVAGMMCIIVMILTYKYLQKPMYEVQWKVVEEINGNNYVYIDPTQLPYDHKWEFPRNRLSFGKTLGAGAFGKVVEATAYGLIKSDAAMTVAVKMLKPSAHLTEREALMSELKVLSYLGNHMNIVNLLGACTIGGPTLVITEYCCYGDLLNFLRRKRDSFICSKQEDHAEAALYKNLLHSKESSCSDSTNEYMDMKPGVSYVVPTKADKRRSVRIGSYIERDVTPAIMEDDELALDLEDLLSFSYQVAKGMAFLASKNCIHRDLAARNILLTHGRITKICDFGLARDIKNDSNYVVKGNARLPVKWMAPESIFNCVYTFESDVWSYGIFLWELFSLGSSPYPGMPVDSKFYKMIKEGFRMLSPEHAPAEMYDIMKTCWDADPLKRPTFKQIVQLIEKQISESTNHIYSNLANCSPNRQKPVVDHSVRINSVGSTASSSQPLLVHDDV
Experimental: Potency of IRAK4 Inhibitor Compounds in cKit Enzyme Assay
Evaluation of the effects of the IRAK4 inhibitor compounds on the activity of the human cKit kinase quantified by measuring the phosphorylation of the substrate Ulight-TK peptide using a human recombinant enzyme and the LANCE® detection method at Eurofins CEREP, catalog item 3070, SOP no 1C768: The test compound, reference compound or water (control) are mixed with the enzyme (0.38 ng) in a buffer containing 40 mM Hepes/Tris (pH 7.4), 0.8 mM EGTA/Tris, 8 mM MgCl2, 1.6 mM DTT and 0.008% Tween 20. Thereafter, the reaction is initiated by adding 100 nM of the substrate Ulight-TK peptide and 50 μM ATP, and the mixture is incubated for 30 min at room temperature. For control basal measurements, the enzyme is omitted from the reaction mixture. Following incubation, the reaction is stopped by adding 13 mM EDTA. After 5 min, the anti-phopho-PT66 antibody labeled with europium chelate is added. After 60 more min, the fluorescence transfer is measured at lex=337 nm, lem=620 nm and lem=665 nm using a microplate reader (Envision, Perkin Elmer). The enzyme activity is determined by dividing the signal measured at 665 nm by that measured at 620 nm (ratio). The results are expressed as a percent inhibition of the control enzyme activity. The standard inhibitory reference compound is staurosporine, which is tested in each experiment at several concentrations to obtain an inhibition curve from which its IC50 value is calculated.
Data presented are the geometric mean of at least n=2, or as denoted by an*are obtained from a single experiment. […] Kinase selectivity can be a key determinant of clinical utility as off target toxicity can be reduced or eliminated.

T1 sequence (Q9NWZ3 whole entry): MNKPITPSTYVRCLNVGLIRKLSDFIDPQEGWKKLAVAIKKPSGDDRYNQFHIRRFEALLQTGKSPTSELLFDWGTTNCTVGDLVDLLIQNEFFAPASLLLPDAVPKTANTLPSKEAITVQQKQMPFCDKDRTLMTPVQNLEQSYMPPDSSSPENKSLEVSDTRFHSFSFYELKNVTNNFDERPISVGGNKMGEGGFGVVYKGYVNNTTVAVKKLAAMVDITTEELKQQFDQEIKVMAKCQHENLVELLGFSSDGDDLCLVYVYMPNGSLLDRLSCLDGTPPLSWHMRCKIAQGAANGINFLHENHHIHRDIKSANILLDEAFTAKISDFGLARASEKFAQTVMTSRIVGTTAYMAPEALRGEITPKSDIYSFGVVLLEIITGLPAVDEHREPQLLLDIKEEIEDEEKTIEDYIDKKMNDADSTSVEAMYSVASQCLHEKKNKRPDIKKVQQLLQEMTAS

| IC50 (IRAK4 [1]) | IC50 (IRAK4 [2]) | IC50 (human cKit kinase) | Structure (SMILES) |
| --- | --- | --- | --- |
| 0.0107 µM | 0.238 µM | – | COc1cc2nn([C@@H]3CCC(N(C)C(C)=O)C[C@H]3C)cc2cc1C(=O)Nc1cccn(C)c1=O (single isomer, unassigned) [Example 2] |
| 0.0007 µM | 0.021 µM | 13.7 µM | COc1cc2nn([C@@H]3CCC(N(C)C(C)=O)C[C@H]3C)cc2cc1C(=O)Nc1cccn(C)c1=O (single isomer, unassigned) [Example 3] |
| 0.199 µM | 2.88 µM | – | COc1cc2nn([C@@H]3CC[C@H](N(C)C(C)=O)C[C@@H]3C)cc2cc1C(=O)Nc1cccn(C)c1=O (single isomer, unassigned) [Example 6] |
| 0.459 µM | 4.5 µM | – | COc1cc2nn([C@@H]3CC[C@H](N(C)C(C)=O)C[C@@H]3C)cc2cc1C(=O)Nc1cccn(C)c1=O (single isomer, unassigned) [Example 7] |
| 0.005 µM | 0.185 µM | – | COc1cc2nn(C3CCC(c4cccnn4)CC3)cc2cc1C(=O)Nc1cccn(C)c1=O (single isomer, unassigned) [Example 23, 6-Methoxy-N-(1-methyl-2-oxo-1,2-dihydropyridin-3-yl)-2-(4-(pyridazin-3-yl)cyclohexyl)-2H-indazole-5-carboxamide] |
| 0.0012 µM | 0.017 µM | 88.1 µM | COc1cc2nn(C3CCC(c4cccnn4)CC3)cc2cc1C(=O)Nc1cccn(C)c1=O (single isomer, unassigned) [Example 24, 6-Methoxy-N-(1-methyl-2-oxo-1,2-dihydropyridin-3-yl)-2-(4-(pyridazin-3-yl)cyclohexyl)-2H-indazole-5-carboxamide] |
| 0.0005 µM | 0.031 µM | 10.6 µM | COc1cc2nn([C@H]3CC[C@H](n4ccnc4C(C)O)CC3)cc2cc1C(=O)Nc1cccn(C)c1=O (single isomer, unassigned) [Example 28, 2-((1r,4r)-4-(2-(1-hydroxyethyl)-1H-imidazol-1-yl)cyclohexyl)-6-methoxy-N-(1-methyl-2-oxo-1,2-dihydropyridin-3-yl)-2H-indazole-5-carboxamide] |
| 0.0006 µM | 0.019 µM | 8.4 µM | COc1cc2nn([C@H]3CC[C@H](n4ccnc4C(C)O)CC3)cc2cc1C(=O)Nc1cccn(C)c1=O (single isomer, unassigned) [Example 29, 2-((1r,4r)-4-(2-(1-hydroxyethyl)-1H-imidazol-1-yl)cyclohexyl)-6-methoxy-N-(1-methyl-2-oxo-1,2-dihydropyridin-3-yl)-2H-indazole-5-carboxamide] |
| 0.0011 µM | 0.03 µM | 13 µM | COc1cc2nn([C@H]3CC[C@H](N(C)C(C)=O)CC3)cc2cc1C(=O)Nc1cccn(C)c1=O [Example 1, 6-Methoxy-N-(1-methyl-2-oxo-1,2-dihydropyridin-3-yl)-2-((1r,4r)-4-(N-methylacetamido)cyclohexyl)-2H-indazole-5-carboxamide] |
| 0.0039 µM | 0.067 µM | 18.3 µM | COc1cc2nn([C@@H]3CC[C@@H](N(C)C(C)=O)C[C@@H]3C)cc2cc1C(=O)Nc1cccn(C)c1=O [Example 4, 6-Methoxy-N-(1-methyl-2-oxo-1,2-dihydropyridin-3-yl)-2-((1R,2S,4R)-2-methyl-4-(N-methylacetamido)cyclohexyl)-2H-indazole-5-carboxamide] |
| 0.0008 µM | 0.024 µM | > 40 µM | COc1cc2nn([C@H]3CC[C@H](N(C)C(C)=O)C[C@H]3C)cc2cc1C(=O)Nc1cccn(C)c1=O [Example 5, 6-Methoxy-N-(1-methyl-2-oxo-1,2-dihydropyridin-3-yl)-2-((1S,2R,4S)-2-methyl-4-(N-methylacetamido)cyclohexyl)-2H-indazole-5-carboxamide] |
| 0.0008 µM | 0.029 µM | 7 µM | COc1cc2nn([C@H]3CC[C@H](N(C)C(=O)[C@@H](C)O)CC3)cc2cc1C(=O)Nc1cccn(C)c1=O [Example 8, 2-((1R,4r)-4-((R)-2-Hydroxy-N-methylpropanamido)cyclohexyl)-6-methoxy-N-(1-methyl-2-oxo-1,2-dihydropyridin-3-yl)-2H-indazole-5-carboxamide] |
| 0.0004 µM | 0.015 µM | 3.3 µM | COc1cc2nn([C@H]3CC[C@H](N(C)C(=O)[C@@H](C)O)CC3)cc2cc1C(=O)Nc1cccn(CF)c1=O [Example 9, N-(1-(Fluoromethyl)-2-oxo-1,2-dihydropyridin-3-yl)-2-((1R,4r)-4-((R)-2-hydroxy-N-methylpropanamido)cyclohexyl)-6-methoxy-2H-indazole-5-carboxamide] |
| 0.0014 µM | 0.037 µM | 2.5 µM | COc1cc2nn([C@H]3CC[C@H](N(C)C(=O)[C@@H](C)O)CC3)cc2cc1C(=O)Nc1cccn(CC#N)c1=O [Example 10, N-(1-(Cyanomethyl)-2-oxo-1,2-dihydropyridin-3-yl)-2-((1R,4r)-4-((R)-2-hydroxy-N-methylpropanamido)cyclohexyl)-6-methoxy-2H-indazole-5-carboxamide] |
| 0.0009 µM | 0.023 µM | 36.3 µM | COc1cc2nn([C@H]3CC[C@H](N(C)C(=O)[C@H](C)O)CC3)cc2cc1C(=O)Nc1cccn(C2CC2)c1=O [Example 11, N-(1-Cyclopropyl-2-oxo-1,2-dihydropyridin-3-yl)-2-((1S,4r)-4-((S)-2-hydroxy-N-methylpropanamido)cyclohexyl)-6-methoxy-2H-indazole-5-carboxamide] |
| 0.0003 µM | 0.015 µM | – | COc1cc2nn([C@H]3CC[C@H](N(C)C(=O)[C@@H](C)O)CC3)cc2cc1C(=O)Nc1cccn(-c2cn[nH]c2)c1=O [Example 14, 2-((1R,4r)-4-((R)-2-Hydroxy-N-methylpropanamido)cyclohexyl)-6-methoxy-N-(2-oxo-1-(1H-pyrazol-4-yl)-1,2-dihydropyridin-3-yl)-2H-indazole-5-carboxamide] |
| 0.0004 µM | 0.02 µM | – | COc1cc2nn([C@H]3CC[C@]4(CC3)COC(=O)N4C)cc2cc1C(=O)Nc1cccn(C)c1=O [Example 21, 6-Methoxy-N-(1-methyl-2-oxo-1,2-dihydropyridin-3-yl)-2-((5r,8r)-1-methyl-2-oxo-3-oxa-1-azaspiro[4.5]decan-8-yl)-2H-indazole-5-carboxamide] |
